Laboratory results from ChEMBL document CHEMBL3885881, “DrugMatrix”.

Species: Rattus norvegicus
Assay: DrugMatrix - Regimen: Daily Repeat
Format: toxicity, organism-based, Sprague-Dawley
Design: regimen Daily Repeat, gender Male, age 6-8 weeks
Details: in vivo, po, 430 mg/kg, route oral GAVAGE, dose level High, vehicle .5 % CMC; for ABSOLUTE BASOPHIL / ABSOLUTE EOSINOPHIL / ABSOLUTE LYMPHOCYTE / ABSOLUTE MONOCYTE / ABSOLUTE SEGMENTED NEUTROPHIL / BASOPHIL / EOSINOPHIL / ERYTHROCYTE COUNT / HEMATOCRIT / HEMOGLOBIN / LEUKOCYTE COUNT / LYMPHOCYTE / MEAN CORPUSCULAR HEMOGLOBIN / MEAN CORPUSCULAR HEMOGLOBIN CONCENTRATION / MEAN CORPUSCULAR VOLUME / MONOCYTE / NEUTROPHIL / NUCLEATED RED BLOOD CELLS / PLATELET COUNT: tissue Blood; for ALANINE AMINOTRANSFERASE / ALBUMIN / ALKALINE PHOSPHATASE / ASPARTATE AMINOTRANSFERASE / BLOOD UREA NITROGEN / CARBON DIOXIDE / CHLORIDE / CHOLESTEROL / CREATININE / GLUCOSE / LACTATE DEHYDROGENASE / LIPASE / PHOSPHORUS / POTASSIUM / SODIUM / TOTAL BILIRUBIN / TOTAL PROTEIN / URIC ACID: tissue Plasma

For `ClC(Cl)Br` [BROMODICHLOROMETHANE], the “ABSOLUTE BASOPHIL” value (72 h, time 3 day) was 0 CELLS/uL, the “ABSOLUTE EOSINOPHIL” value (72 h, time 3 day) was 216.67 CELLS/uL and the “ABSOLUTE LYMPHOCYTE” value (72 h, time 3 day) was 11508.33 CELLS/uL. For the same compound, the “ABSOLUTE MONOCYTE” value (72 h, time 3 day) was 948.33 CELLS/uL, the “ABSOLUTE SEGMENTED NEUTROPHIL” value (72 h, time 3 day) was 1326.67 CELLS/uL and the BASOPHIL (72 h, time 3 day) was 0%. The EOSINOPHIL (72 h, time 3 day) was 1.33%, the “ERYTHROCYTE COUNT” value (72 h, time 3 day) was 6.13 x10E6/uL and the HEMATOCRIT (72 h, time 3 day) was 37.07%. For the same compound, the HEMOGLOBIN (72 h, time 3 day) was 13.87 G/DL, the “LEUKOCYTE COUNT” value (72 h, time 3 day) was 14 x10E3/uL and the LYMPHOCYTE (72 h, time 3 day) was 82.33%. The “MEAN CORPUSCULAR HEMOGLOBIN” value (72 h, time 3 day) was 22.63 pg, the “MEAN CORPUSCULAR HEMOGLOBIN CONCENTRATION” value (72 h, time 3 day) was 37.4 G/DL and the “MEAN CORPUSCULAR VOLUME” value (72 h, time 3 day) was 60.47 fL. The MONOCYTE (72 h, time 3 day) was 6.67%, the NEUTROPHIL (72 h, time 3 day) was 9.67% and the “NUCLEATED RED BLOOD CELLS” value (72 h, time 3 day) was 0 /100WBC. The “PLATELET COUNT” value (72 h, time 3 day) was 1186 x10E3/uL, the “ALANINE AMINOTRANSFERASE” value (72 h, time 3 day) was 73.33 u/L and the ALBUMIN (72 h, time 3 day) was 4.57 G/DL. For the same compound, the “ALKALINE PHOSPHATASE” value (72 h, time 3 day) was 459.67 u/L, the “ASPARTATE AMINOTRANSFERASE” value (72 h, time 3 day) was 106 u/L and the “BLOOD UREA NITROGEN” value (72 h, time 3 day) was 18.67 mg/dL. The “CARBON DIOXIDE” value (72 h, time 3 day) was 23 mmol/L, the CHLORIDE (72 h, time 3 day) was 104.67 MEQ/L and the CHOLESTEROL (72 h, time 3 day) was 72 mg/dL. For the same compound, the CREATININE (72 h, time 3 day) was 0.22 mg/dL, the GLUCOSE (72 h, time 3 day) was 124.33 mg/dL and the “LACTATE DEHYDROGENASE” value (72 h, time 3 day) was 655 u/L. For the same compound, the LIPASE (72 h, time 3 day) was 9 u/L, the PHOSPHORUS (72 h, time 3 day) was 12.47 mg/dL and the POTASSIUM (72 h, time 3 day) was 6.06 MEQ/L. The SODIUM (72 h, time 3 day) was 141.67 MEQ/L, the “TOTAL BILIRUBIN” value (72 h, time 3 day) was 0.27 mg/dL and the “TOTAL PROTEIN” value (72 h, time 3 day) was 5.93 G/DL. For the same compound, the “URIC ACID” value (72 h, time 3 day) was 1.9 mg/dL, the “ABSOLUTE BASOPHIL” value (120 h, time 5 day) was 0 CELLS/uL and the “ABSOLUTE EOSINOPHIL” value (120 h, time 5 day) was 20 CELLS/uL. The “ABSOLUTE LYMPHOCYTE” value (120 h, time 5 day) was 7894 CELLS/uL, the “ABSOLUTE MONOCYTE” value (120 h, time 5 day) was 268.67 CELLS/uL and the “ABSOLUTE SEGMENTED NEUTROPHIL” value (120 h, time 5 day) was 750.67 CELLS/uL. The BASOPHIL (120 h, time 5 day) was 0%, the EOSINOPHIL (120 h, time 5 day) was 0.33% and the “ERYTHROCYTE COUNT” value (120 h, time 5 day) was 6.18 x10E6/uL. For the same compound, the HEMATOCRIT (120 h, time 5 day) was 35.9%, the HEMOGLOBIN (120 h, time 5 day) was 13 G/DL and the “LEUKOCYTE COUNT” value (120 h, time 5 day) was 8.93 x10E3/uL. For the same compound, the LYMPHOCYTE (120 h, time 5 day) was 88.67%, the “MEAN CORPUSCULAR HEMOGLOBIN” value (120 h, time 5 day) was 21.07 pg and the “MEAN CORPUSCULAR HEMOGLOBIN CONCENTRATION” value (120 h, time 5 day) was 36.23 G/DL. The “MEAN CORPUSCULAR VOLUME” value (120 h, time 5 day) was 58.1 fL, the MONOCYTE (120 h, time 5 day) was 2.67% and the NEUTROPHIL (120 h, time 5 day) was 8.33%. For the same compound, the “NUCLEATED RED BLOOD CELLS” value (120 h, time 5 day) was 0 /100WBC, the “PLATELET COUNT” value (120 h, time 5 day) was 970.33 x10E3/uL and the “ALANINE AMINOTRANSFERASE” value (120 h, time 5 day) was 85 u/L. The ALBUMIN (120 h, time 5 day) was 4.6 G/DL, the “ALKALINE PHOSPHATASE” value (120 h, time 5 day) was 399.33 u/L and the “ASPARTATE AMINOTRANSFERASE” value (120 h, time 5 day) was 105 u/L. For the same compound, the “BLOOD UREA NITROGEN” value (120 h, time 5 day) was 12.67 mg/dL, the “CARBON DIOXIDE” value (120 h, time 5 day) was 33.67 mmol/L and the CHLORIDE (120 h, time 5 day) was 103.67 MEQ/L. The CHOLESTEROL (120 h, time 5 day) was 63.33 mg/dL, the CREATININE (120 h, time 5 day) was 0.21 mg/dL and the GLUCOSE (120 h, time 5 day) was 116 mg/dL. The “LACTATE DEHYDROGENASE” value (120 h, time 5 day) was 107.67 u/L, the LIPASE (120 h, time 5 day) was 9.33 u/L and the PHOSPHORUS (120 h, time 5 day) was 10.87 mg/dL. The POTASSIUM (120 h, time 5 day) was 5.17 MEQ/L, the SODIUM (120 h, time 5 day) was 146.4 MEQ/L and the “TOTAL BILIRUBIN” value (120 h, time 5 day) was 0.23 mg/dL. For the same compound, the “TOTAL PROTEIN” value (120 h, time 5 day) was 6.17 G/DL, the “URIC ACID” value (120 h, time 5 day) was 0.8 mg/dL and the “ABSOLUTE BASOPHIL” value ([…], time 14 day) was 0 CELLS/uL. The “ABSOLUTE EOSINOPHIL” value ([…], time 14 day) was 120.4 CELLS/uL, the “ABSOLUTE LYMPHOCYTE” value ([…], time 14 day) was 11064.6 CELLS/uL and the “ABSOLUTE MONOCYTE” value ([…], time 14 day) was 372 CELLS/uL. The “ABSOLUTE SEGMENTED NEUTROPHIL” value ([…], time 14 day) was 2303 CELLS/uL, the BASOPHIL ([…], time 14 day) was 0% and the EOSINOPHIL ([…], time 14 day) was 0.8%. The “ERYTHROCYTE COUNT” value ([…], time 14 day) was 6.18 x10E6/uL, the HEMATOCRIT ([…], time 14 day) was 34.92% and the HEMOGLOBIN ([…], time 14 day) was 12.94 G/DL. For the same compound, the “LEUKOCYTE COUNT” value ([…], time 14 day) was 13.86 x10E3/uL, the LYMPHOCYTE ([…], time 14 day) was 80.8% and the “MEAN CORPUSCULAR HEMOGLOBIN” value ([…], time 14 day) was 20.96 pg. For the same compound, the “MEAN CORPUSCULAR HEMOGLOBIN CONCENTRATION” value ([…], time 14 day) was 37.08 G/DL, the “MEAN CORPUSCULAR VOLUME” value ([…], time 14 day) was 56.58 fL and the MONOCYTE ([…], time 14 day) was 2.6%. For the same compound, the NEUTROPHIL ([…], time 14 day) was 15.8%, the “NUCLEATED RED BLOOD CELLS” value ([…], time 14 day) was 0 /100WBC and the “PLATELET COUNT” value ([…], time 14 day) was 862.2 x10E3/uL. The “ALANINE AMINOTRANSFERASE” value ([…], time 14 day) was 65.6 u/L, the ALBUMIN ([…], time 14 day) was 4.56 G/DL and the “ALKALINE PHOSPHATASE” value ([…], time 14 day) was 422.2 u/L. For the same compound, the “ASPARTATE AMINOTRANSFERASE” value ([…], time 14 day) was 104.6 u/L, the “BLOOD UREA NITROGEN” value ([…], time 14 day) was 19.6 mg/dL and the “CARBON DIOXIDE” value ([…], time 14 day) was 25.8 mmol/L. The CHLORIDE ([…], time 14 day) was 106.8 MEQ/L, the CHOLESTEROL ([…], time 14 day) was 71.4 mg/dL and the CREATININE ([…], time 14 day) was 0.25 mg/dL. For the same compound, the GLUCOSE ([…], time 14 day) was 140.6 mg/dL, the “LACTATE DEHYDROGENASE” value ([…], time 14 day) was 190 u/L and the LIPASE ([…], time 14 day) was 9.2 u/L. For the same compound, the PHOSPHORUS ([…], time 14 day) was 10.96 mg/dL, the POTASSIUM ([…], time 14 day) was 5.79 MEQ/L and the SODIUM ([…], time 14 day) was 145.9 MEQ/L. For the same compound, the “TOTAL BILIRUBIN” value ([…], time 14 day) was 0.16 mg/dL, the “TOTAL PROTEIN” value ([…], time 14 day) was 6.14 G/DL and the “URIC ACID” value ([…], time 14 day) was 1.44 mg/dL.
